The results in this text go back to patent publication US10813891B2, “Method of inhibiting chronification of pain” (priority 2011, dated 2020).

One experiment relates to CCI-ION rats. The class given is in vivo, rat. As for the experimental part:
Male Sprague-Dawley rats (Charles River Laboratories, L'Arbresle, France), weighing 150-200 g on arrival, were used. Animals were maintained under controlled environmental conditions (22±1° C., 60% relative humidity, 12 h/12 h light/dark cycle, food and water ad libitum) starting from reception in the laboratory, for at least 1 week before any intervention or treatment and thereafter, until euthanasia.
Rats were anaesthetized with sodium pentobarbital (50 mg/kg i.p.). Unilateral CCI-ION was performed under direct visual control using a Zeiss microscope (10-25×). Briefly, the head was fixed in a Horsley-Clarke stereotaxic frame and a midline scalp incision was made, exposing skull and nasal bone. The edge of the orbit, formed by the maxillary, frontal, lacrimal, and zygomatic bones, was dissected free. The orbital contents were then gently deflected to give access to the infraorbital nerve which was dissected free at its most rostral extent in the orbital cavity, just caudal to the infraorbital foramen. Only 5 mm of the nerve could be freed, providing the space for placement of two chromic catgut (5-0) ligations tied loosely (with about 2 mm spacing) around it. […] Finally, scalp incision was closed using silk sutures (4-0). In sham-operated rats, the ION was exposed using the same procedure, but was not ligated.
Tapentadol (1, 3 and 10 mg/kg i.p.), reboxetine (10 mg/kg i.p.), morphine (1 and 3 mg/kg s.c.) or their vehicle (0.9% NaCl) were injected acutely 14 days after surgery, when allodynia/hyperalgesia reached a plateau in both CCI-SN and CCI-ION rats. Behavioral tests were performed at various times for up to 4 h after injection. In drug association procedure, reboxetine or saline was administered 15 min before morphine or saline.
(§1) Subchronic treatment consisted of twice daily injections of tapentadol (10 mg/kg, i.p. at 10:00 am and 6:00 pm) or saline for 4 days starting on the 15th day after nerve ligation in both CCI-ION and CCI-SN rats. Animals were further injected with tapentadol (10 mg/kg i.p.) or saline at 10:00 am the following day (19th day post-surgery), and assessment of allodynia with von Frey filament tests (see below) was made at various times up to 4 hours after this injection. All rats were killed by decapitation 4 hours after the last injection for real-time qRT-PCR determinations of specific mRNAs in ganglia and central tissues (see below).
Rats were placed individually in small (35×20×15 cm) plastic cages for a 2 h habituation period. Before any stimulation session, rats freely explored the observation cage and the testing environments for 2 h. Then mechanical sensitivity was determined with a graded series of […] von Frey filaments (Bioseb, Bordeaux, France). The filaments produced a bending force of 0.40, 0.60, 1.00, 2.00, 4.00, 6.00, 8.00, 10.00 and 12.00 g, respectively. The stimuli were applied within the ION territory (vibrissae pad) three times on the nerve-injured side and then on the contralateral side for a total of 6 applications of each filament per rat, always beginning with the filament producing the lowest force. The von Frey filaments were applied at least 3 seconds after the rat had returned to its initial resting state. For each session, the complete series of von Frey filaments was tested in increasing force order. […] The latter responses represented the highest scores in the rank-ordered response scoring system initially described by Vos et al. (1994). Under our own conditions, the mechanical response threshold was determined as the minimal force filament causing at least one among these responses to at least 2 out of the 3 applications in vibrissae territory. […] To avoid nonspecific responses, only these rats were included in the study.

Experiment [1] deals with mRNA encoding ATF3, IL-6 and BDNF. The experiment in a line: Real time qRT-PCR of mRNA in trigeminal ganglion and Sp5c of CCI-ION rats. The following applies: subchronic 10 mg/kg i.p. twice daily; ipsilateral trigeminal ganglion and Sp5c area; 4 h after last injection. Type of experiment: in vivo, rat. The protocol: as §1
Animals used for qRT-PCR procedure were decapitated immediately after performance of von Frey filament test four hours after the last injection of tapentadol or saline for subchronic treatment conditions (see above). […]
First-stranded cDNA synthesis (from 660 ng total RNA per 20 μl reaction mixture) was carried out using SuperScript™ III Reverse Transcriptase and random primers (250 ng per reaction), as recommended by the manufacturer (Invitrogen, Cergy Pontoise, France). […] Semi-quantitative determinations were made with reference to the reporter gene encoding glyceraldehyde 3-phosphate dehydrogenase (GaPDH; Rn99999916_sl). […] Specific mRNA levels were calculated after normalizing from GaDPH mRNA in each sample (Latrémolière et al., 2008). […]

Turning to `CC[C@@H](c1cccc(O)c1)[C@@H](C)CN(C)C` [Tapentadol, (−)-(1R,2R)-3-(3-dimethylamino-1-ethyl-2-methyl-propyl)-phenol], the “anti-allodynic effect after subchronic pretreatment vs saline pretreatment” value in the experiment with CCI-ION rats (10 mg/kg i.p. twice daily for four days, challenge 10 mg/kg i.p. day 19) was “had the same characteristics (amplitude, duration)”. The “increase in pressure threshold value compared to saline-treated CCI-ION rats” value in the experiment with CCI-ION rats (acute 1 mg/kg i.p., first 45 min) is listed as “up to 6 fold”. For the same molecule, the “duration of statistically significant anti-allodynic effect” value in the experiment with CCI-ION rats (acute 10 mg/kg i.p.) is reported as “at least two hours”. Also, the “pressure threshold values higher than those determined prior to injection” value with CCI-ION rats (acute 10 mg/kg i.p., 30-60 min after injection) is given as 15-20 fold. The “ATF3, IL-6 and BDNF mRNA levels” value in experiment [1] is recorded as “had no significant effects”.
